Assay results published in PubChem BioAssay (NCI).
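Method: 48-hour compound exposure of cells in 96-well plates, five concentrations, linear interpolation of endpoints. TGI is the concentration that stops growth completely.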

Tests used:
Assay in all cases: growth of human tumour cells (NCI), 48 h
[1] = system: RXF 393 renal
[2] = system: MDA-N
[3] = system: HCT-15 colon
[4] = system: LOX IMVI melanoma
[5] = system: NCI-H23 lung
[6] = system: EKVX NSCLC
[7] = system: SN12C renal
[8] = system: OVCAR-8 ovarian
[9] = system: UACC-62 melanoma
[10] = system: HT29 colon
[11] = system: OVCAR-5 ovarian
[12] = system: BT-549 breast
[13] = system: CCRF-CEM leukemia
[14] = system: 786-0 renal
[15] = system: SW-620 colon
[16] = system: SNB-19 CNS
[17] = system: HCT-116 colon
[18] = system: ACHN renal
[19] = system: K-562 leukemia
[20] = system: HOP-92 NSCLC
[21] = system: PC-3 prostate
[22] = system: KM12 colon
[23] = system: UO-31 renal
[24] = system: HOP-62 NSCLC
[25] = system: MOLT-4 leukemia
[26] = system: MDA-MB-435
[27] = system: SNB-75 CNS
[28] = system: SK-MEL-2 melanoma
[29] = system: MDA-MB-231 breast
[30] = system: IGROV1 ovarian
[31] = system: U251 CNS
[32] = system: NCI/ADR-RES ovarian
[33] = system: UACC-257 melanoma
[34] = system: DU-145 prostate
[35] = system: RPMI-8226 leukemia
[36] = system: SK-OV-3 ovarian
[37] = system: TK-10 renal
[38] = system: SR leukemia
[39] = system: SF-268 CNS
[40] = system: M14 melanoma
[41] = system: OVCAR-4 ovarian
[42] = system: MCF7 breast
[43] = system: SF-539 CNS
[44] = system: NCI-H522 lung
[45] = system: HCC-2998 colon
[46] = system: OVCAR-3 ovarian
[47] = system: SF-295 CNS
[48] = system: COLO 205 colon
[49] = system: SK-MEL-5 melanoma
[50] = system: A549 NSCLC
[51] = system: SK-MEL-28 melanoma
[52] = system: CAKI-1 renal
[53] = system: NCI-H226 lung
[54] = system: NCI-H460 lung
[55] = system: T-47D breast
[56] = system: HL-60(TB) leukemia
[57] = system: MALME-3M melanoma
[58] = system: A498 renal

Measured: TGI

CCc1nnc(CC)n1N1C(=O)CCC1=O
not listed: [52] | [53] | [54] | [55] | [56] | [57] | [58]
> 100 µM: all other assays above

COc1ccn(CC(=O)c2cc3ccccc3[nH]2)c(=O)n1
not listed: [38]
> 100 µM: all other assays above
